{
  "source": "patent US11000506B2",
  "about": "“Envenomation therapies and related pharmaceutical compositions, systems and kits” (OPHIREX, INC, priority 2014, dated 2021)",
  "key": {"[1]": {"test_system": "E. carinatus venom MP", "assay": "HTS for inhibitors of E. carinatus venom MP", "type": "biochemical", "settings": "compounds approximately 10 μM/well", "description": "(§1) Background. Phospholipase A2 (PLA2) catalyzes the hydrolysis of phospholipids at the sn-2 position yielding a free fatty acid and a lysophospholipid. The release of arachidonic acid from membrane phospholipids by PLA is believed to be a key step in the control of eicosanoid production within the cell. The Bee Venom PLA2 Control was a 100 μg/ml solution of bee venom PLA2 is supplied as a positive control in the kit (Abcam kit catalog number ab133089). Substrate for MP was DQ Gelatin and assay run per EnzChek gelatinase assay manufacturers instructions. Venom MP activity was not optimized in initial experiments, but reaction rates were during experiments performed by an independently contracted laboratory. SP assay was performed using Nα-Benzoyl-L-arginine-7-amido-4-methylcoumarin hydrochloride. These kits were stored as specified if stored at −20° C. Unless otherwise specified, in the case of my experiments, only crude, unfractionated lyophilized venom purchased from Sigma or the Miami Serpentarium were used. Plate Setup: Manufacturers guidelines (paraphrased herein) were followed unless otherwise specified. Data Analysis: xcel per manufacturers recommendations. MP and SP assays were prepared and plated in the same manner as PLA2 assays except substrates and fluorophores were different. PBS was the buffer in the case of MP and SP assays and absorbance measured at 495 nm. Substrate for MP was DQ Gelatin and assay run per EnzChek gelatinase assay manufacturers instructions except that experiments were run, unconventionally at 37 C to estimate human body temperature and initial experiments for PLA2, MP activity and SP activity were not optimized for screening (e.g. extremely high doses of venom were used—10 mg/mL stock in all cases since the quality of the venom was unknown with final concentration of 0.444 mg/mL in the test wells). SP assay was performed using Na-Benzoyl-L-arginine-7-amido-4-methylcoumarin hydrochloride (Sigma). Specifics of contract laboratory technique vary from the present inventor's initial experiments in terms of venom and substrate optimization, plate size (384 instead of 96), volume and temperature and other factors including different operators such as those described immediately below, performed following the first pilot experiments and subsequently extended by a contract laboratory.\n(§2) Small molecule screening and dose-response experiments took place in the Yale Center for Molecular Discovery. Instrumentation used when indicated included Tecan EVO (2), Tecan Aquarius, Matrix PlateMatePlus (2), Matrix PlateMate2×2 liquid transfer robots and Titertek and Thermo Multidrop liquid dispensers (7). PerkinElmer EnVision (3) and Tecan infinite M1000 (2) plate readers sensitively measure absorbance, fluorescence, fluorescence polarization and luminescence in 96- and 384-well plate formats. A GE InCell Analyzer 2200 imaging system acquires multicolor fluorescent and transmitted light images from plates. Piloting collections used in the first phases of screening were selected by the inventor or from libraries of known compounds and natural products available at the time of experiments on selected venoms including: NCC, GenPlus, Pharmakon, Bioactive lipids, Protease Inhibitors, Procured Drugs and FDA Approved Drugs libraries. The GenPlus (the NINDS Custom Collection) from MicroSource Discovery Systems contains 960 compounds. […]"}, "[2]": {"target": "snake venom metalloproteinase", "assay": "IC50 for MP inhibition on various venoms (Table 8, FIG. 20)", "type": "biochemical", "settings": "general statement; values only in figures"}, "[3]": {"test_system": "C. atrox venom MP", "assay": "HTS for inhibitors of C. Atrox venom MP", "type": "biochemical", "description": "as §1, §2"}, "[4]": {"test_system": "snake venom metalloproteinase", "assay": "time course of metalloproteinase activity with excess venom (FIG. 2A)", "type": "biochemical", "settings": "inhibitors 100 uM; venom 0.444 mg/mL", "quoted_text": "Substrate for MP was DQ Gelatin and assay run per EnzChek gelatinase assay manufacturers instructions. Venom MP activity was not optimized in initial experiments, but reaction rates were during experiments performed by an independently contracted laboratory. SP assay was performed using Nα-Benzoyl-L-arginine-7-amido-4-methylcoumarin hydrochloride. […] Unless otherwise specified, in the case of my experiments, only crude, unfractionated lyophilized venom purchased from Sigma or the Miami Serpentarium were used. Plate Setup: Manufacturers guidelines (paraphrased herein) were followed unless otherwise specified. Data Analysis: xcel per manufacturers recommendations. MP and SP assays were prepared and plated in the same manner as PLA2 assays except substrates and fluorophores were different. PBS was the buffer in the case of MP and SP assays and absorbance measured at 495 nm. Substrate for MP was DQ Gelatin and assay run per EnzChek gelatinase assay manufacturers instructions except that experiments were run, unconventionally at 37 C to estimate human body temperature and initial experiments for PLA2, MP activity and SP activity were not optimized for screening (e.g. extremely high doses of venom were used—10 mg/mL stock in all cases since the quality of the venom was unknown with final concentration of 0.444 mg/mL in the test wells). SP assay was performed using Na-Benzoyl-L-arginine-7-amido-4-methylcoumarin hydrochloride (Sigma). Specifics of contract laboratory technique vary from the present inventor's initial experiments in terms of venom and substrate optimization, plate size (384 instead of 96), volume and temperature and other factors including different operators such as those described immediately below, performed following the first pilot experiments and subsequently extended by a contract laboratory.\nScreening was carried out for inhibitors of venom sPLA2, MP and SPs. Stock solutions of venom at 10 mg/mL were used without typical dilution for assaying various inhibitors of sPLA2, MP and SPs. The final venom concentration in the assays was very high at 0.444 mg/mL."}, "[5]": {"test_system": "Daboia russelli venom MP", "assay": "metalloproteinase activity over time, Daboia russelli venom (FIG. 2B)", "type": "biochemical", "settings": "100 uM; venom 0.444 mg/mL", "quoted_text": "Substrate for MP was DQ Gelatin and assay run per EnzChek gelatinase assay manufacturers instructions. Venom MP activity was not optimized in initial experiments, but reaction rates were during experiments performed by an independently contracted laboratory. […] These kits were stored as specified if stored at −20° C. Unless otherwise specified, in the case of my experiments, only crude, unfractionated lyophilized venom purchased from Sigma or the Miami Serpentarium were used. Plate Setup: Manufacturers guidelines (paraphrased herein) were followed unless otherwise specified. Data Analysis: xcel per manufacturers recommendations. MP and SP assays were prepared and plated in the same manner as PLA2 assays except substrates and fluorophores were different. PBS was the buffer in the case of MP and SP assays and absorbance measured at 495 nm. Substrate for MP was DQ Gelatin and assay run per EnzChek gelatinase assay manufacturers instructions except that experiments were run, unconventionally at 37 C to estimate human body temperature and initial experiments for PLA2, MP activity and SP activity were not optimized for screening (e.g. extremely high doses of venom were used—10 mg/mL stock in all cases since the quality of the venom was unknown with final concentration of 0.444 mg/mL in the test wells). […]"}, "[6]": {"test_system": "M. fulvius venom", "assay": "protection of mice from M. fulvius venom (FIG. 6A-D)", "type": "in vivo", "settings": "methylvarespladib fed ad libitum in biscuits, high-dose venom ~5 hours later; N=2", "description": "Mice received SC injections of M. fulvius venom at ^˜4 times the expected LD50 (typically estimated to be 1.3 mg/kg SC) (0.1 mg M. fulvius venom/animal for approximate dose of ^˜4 mg/kg). Prior to venom injection animals received either total dose 0.1 mg varespladib exipient (sham treatment) by SC route for calculated concentration of 4 mg/kg varespladib ^˜10-15 minutes before venom administration. Surviving animals were euthanized by CO2 inhalation at the end of experiments and observations periods ranging from ^˜12 hours to as long as 30 hours (survival being designated at 24 hours). […] In mice: Varespladib 4-8 mg/kg subcutaneously or orally with methylvarespladib, taken ad libitum. In rats, varespladib or excipient was administered intravenously at 30 seconds or 5 minutes following subcutaneous administration of venom at 4 or 8 mg/kg. Blood sampling and assay for sPLA2 activity was performed with samples taken from a surgically implanted jugular venous catheter at precise intervals (baseline, 30 minutes, 1 hour and 4 hours).\n6B Mice fed methylvarespladib or exipient ad libitum in biscuits had high-dose M. fulvius venom administered ^˜5 hours after introduction of the biscuits (N=2 each group). […] 6C Venom and varespladib (4 mg/kg) or venom and excipient were mixed just prior to administration and injected subcutaneously. At 5 hours (300 minutes, down-pointing arrow), surviving animals were retreated with ½ dose varespladib (2 mg/kg) or excipient. […] Mice either received venom and sham/excipient (N=7), methylvarespladib (N=3) or varespladib (N=7) ^˜30 seconds to 1.5 minute following venom administration. […] Confirmatory experiments and results of 6E-H were performed in rats by a contract laboratory to assess expand knowledge of varespladib's capacity to act in therapeutic mode and see if the effects of intravenous administration were similar to subcutaneous administration. 6E and 6F M. fulvius venom was administered subcutaneously (4 mg/kg or 8 mg/kg) and then excipient or varespladib 8 mg/kg was administered at 30 seconds or 5 minutes after envenomation."}, "[7]": {"test_system": "snake venom serine proteases", "assay": "serine protease activity with excess venom (FIG. 3)", "type": "biochemical", "settings": "100 um; venom 0.444 mg/mL; compared to marimastat and batimastat", "quoted_text": "Substrate for MP was DQ Gelatin and assay run per EnzChek gelatinase assay manufacturers instructions. Venom MP activity was not optimized in initial experiments, but reaction rates were during experiments performed by an independently contracted laboratory. SP assay was performed using Nα-Benzoyl-L-arginine-7-amido-4-methylcoumarin hydrochloride. […] Unless otherwise specified, in the case of my experiments, only crude, unfractionated lyophilized venom purchased from Sigma or the Miami Serpentarium were used. Plate Setup: Manufacturers guidelines (paraphrased herein) were followed unless otherwise specified. Data Analysis: xcel per manufacturers recommendations. MP and SP assays were prepared and plated in the same manner as PLA2 assays except substrates and fluorophores were different. PBS was the buffer in the case of MP and SP assays and absorbance measured at 495 nm. Substrate for MP was DQ Gelatin and assay run per EnzChek gelatinase assay manufacturers instructions except that experiments were run, unconventionally at 37 C to estimate human body temperature and initial experiments for PLA2, MP activity and SP activity were not optimized for screening (e.g. extremely high doses of venom were used—10 mg/mL stock in all cases since the quality of the venom was unknown with final concentration of 0.444 mg/mL in the test wells). […]"}, "[8]": {"target": "bee venom PLA2 (Apis mellifera, UniProt P00630)", "sequence (P00630 34-167 limits assumed)": "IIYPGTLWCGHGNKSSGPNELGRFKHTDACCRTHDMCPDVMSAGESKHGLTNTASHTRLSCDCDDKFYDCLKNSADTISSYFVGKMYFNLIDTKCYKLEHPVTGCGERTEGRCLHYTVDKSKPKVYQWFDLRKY", "type": "biochemical"}, "[9]": {"test_system": "snake venom PLA2", "type": "biochemical", "description": "Background. Phospholipase A2 (PLA2) catalyzes the hydrolysis of phospholipids at the sn-2 position yielding a free fatty acid and a lysophospholipid. The release of arachidonic acid from membrane phospholipids by PLA is believed to be a key step in the control of eicosanoid production within the cell. The Bee Venom PLA2 Control was a 100 μg/ml solution of bee venom PLA2 is supplied as a positive control in the kit (Abcam kit catalog number ab133089). Substrate for MP was DQ Gelatin and assay run per EnzChek gelatinase assay manufacturers instructions. Venom MP activity was not optimized in initial experiments, but reaction rates were during experiments performed by an independently contracted laboratory. SP assay was performed using Nα-Benzoyl-L-arginine-7-amido-4-methylcoumarin hydrochloride. These kits were stored as specified if stored at −20° C. Unless otherwise specified, in the case of my experiments, only crude, unfractionated lyophilized venom purchased from Sigma or the Miami Serpentarium were used. Plate Setup: Manufacturers guidelines (paraphrased herein) were followed unless otherwise specified. Data Analysis: xcel per manufacturers recommendations. MP and SP assays were prepared and plated in the same manner as PLA2 assays except substrates and fluorophores were different. PBS was the buffer in the case of MP and SP assays and absorbance measured at 495 nm. […]\nSmall molecule screening and dose-response experiments took place in the Yale Center for Molecular Discovery. […] PerkinElmer EnVision (3) and Tecan infinite M1000 (2) plate readers sensitively measure absorbance, fluorescence, fluorescence polarization and luminescence in 96- and 384-well plate formats. […]"}, "[10]": {"test_system": "M. fulvius venom PLA2", "assay": "HTS for inhibitors of M. fulvius venom PLA2", "type": "biochemical", "settings": "compounds approximately 10 μM/well"}},
  "note": "Entries after “also recorded” stand apart in the source; their conditions may differ.",
  "data": [
    {"compound": "CCOC(=O)c1ccc(OC(=O)CCCCCNC(=N)N)cc1", "note": "[gabexate, ethyl-p[6-guanidinohexanoyloxy]-benzoate methansulfonate]", "values": [
      {"measurement": "% Effect on E. carinatus venom MP", "setting": "[1]", "value": 23, "unit": "%"},
      {"measurement": "IC50s on various venoms", "setting": "[2]", "value": "micromolar range"},
      {"measurement": "MP inhibition (in words)", "setting": "[3]", "value": "MP inhibition was seen"}
    ]},
    {"compound": "CNC(=O)[C@@H](NC(=O)[C@H](CC(C)C)[C@H](O)C(=O)NO)C(C)(C)C", "note": "[marimastat]", "values": [
      {"measurement": "inhibition of metalloproteinase activity (time course)", "setting": "[4]", "value": "most consistently showing significant inhibition"},
      {"measurement": "inhibition of Daboia russelli venom MP over time", "setting": "[5]", "value": "comparable inhibition"}
    ]},
    {"compound": "CCc1c(C(=O)C(N)=O)c2c(OCC(=O)OC)cccc2n1Cc1ccccc1", "note": "[methylvarespladib]", "values": [
      {"measurement": "signs or symptoms of envenomation / protection from the effects of the venom", "setting": "[6]", "value": "complete protection; also recorded: Neither treated mouse exhibited any signs or symptoms of envenomation"},
      {"measurement": "inhibitory effects on snake venom serine proteases", "setting": "[7]", "value": "unexpected inhibitory effects"},
      {"measurement": "inhibition of bee venom PLA2", "setting": "[8]", "value": "only a modest effect"},
      {"measurement": "inhibition of snake venom PLA2 in vitro", "setting": "[9]", "value": "inhibited the measured sPLA2 activity of several medically important snake venoms"}
    ]},
    {"compound": "Ceramide", "values": [
      {"measurement": "% effect (% inhibition) on M. fulvius venom PLA2", "setting": "[10]", "value": 43, "unit": "%"}
    ]}
  ]
}
